# Laboratory results published in PubChem BioAssay (NCI).
#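 Exposure lasted 48 hours, with cells grown in 96-well plates and compounds tested at five concentrations. TGI: total growth inhibition.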
# Legend:
# Assay in all cases: NCI-60 cell line screen, 48 h
# [1] = test system: SK-OV-3 ovarian
# [2] = test system: SF-295 CNS
# [3] = test system: DLD-1 colon
# [4] = test system: A549 NSCLC
# [5] = test system: NCI-H522 lung
# [6] = test system: IGROV1 ovarian
# [7] = test system: TK-10 renal
# [8] = test system: DMS 273 small cell lung
# [9] = test system: HT29 colon
# [10] = test system: XF 498 CNS
# [11] = test system: M19-MEL melanoma
# [12] = test system: OVCAR-4 ovarian
# [13] = test system: OVCAR-5 ovarian
# [14] = test system: HL-60(TB) leukemia
# [15] = test system: UO-31 renal
# [16] = test system: KM20L2 colon
# [17] = test system: HOP-18 NSCLC
# [18] = test system: SNB-78 CNS
# [19] = test system: HCC-2998 colon
# [20] = test system: LXFL 529 NSCLC
# [21] = test system: UACC-257 melanoma
# [22] = test system: UACC-62 melanoma
# [23] = test system: EKVX NSCLC
# [24] = test system: NCI-H23 lung
# [25] = test system: SK-MEL-2 melanoma
# [26] = test system: 786-0 renal
# [27] = test system: ACHN renal
# [28] = test system: U251 CNS
# [29] = test system: HCT-116 colon
# [30] = test system: KM12 colon
# [31] = test system: RXF 393 renal
# [32] = test system: HCT-15 colon
# [33] = test system: SNB-75 CNS
# [34] = test system: HOP-62 NSCLC
# [35] = test system: COLO 205 colon
# [36] = test system: CAKI-1 renal
# [37] = test system: OVCAR-3 ovarian
# [38] = test system: SF-268 CNS
# [39] = test system: LOX IMVI melanoma
# [40] = test system: K-562 leukemia
# [41] = test system: NCI-H460 lung
# [42] = test system: SN12C renal
# [43] = test system: SK-MEL-28 melanoma
# [44] = test system: SNB-19 CNS
# [45] = test system: SK-MEL-5 melanoma
# [46] = test system: MOLT-4 leukemia
# [47] = test system: MALME-3M melanoma
# [48] = test system: SR leukemia
# [49] = test system: NCI-H226 lung
# [50] = test system: OVCAR-8 ovarian
# [51] = test system: SW-620 colon
# [52] = test system: CCRF-CEM leukemia
# [53] = test system: RPMI-8226 leukemia
# [54] = test system: M14 melanoma
# [55] = test system: HOP-92 NSCLC
# [56] = test system: A498 renal
# [57] = test system: SF-539 CNS
# [58] = test system: DMS 114 small cell lung
structure (smiles),measurement,setting,value
O=C1C(Cl)C(c2cc(Br)cc(Br)c2O)N1n1cnc2ccccc2c1=O (stereo not given),TGI,[1],42.3 µM
same,TGI,[2],54.2 µM
same,TGI,[3],> 100 µM
same,TGI,[4],> 100 µM
same,TGI,[5],49.1 µM
same,TGI,[6],70.7 µM
same,TGI,[7],> 100 µM
same,TGI,[8],> 100 µM
same,TGI,[9],> 100 µM
same,TGI,[10],61.2 µM
same,TGI,[11],62.2 µM
same,TGI,[12],43.1 µM
same,TGI,[13],71.8 µM
same,TGI,[14],48 µM
same,TGI,[15],76.1 µM
same,TGI,[16],> 100 µM
same,TGI,[17],83.8 µM
same,TGI,[18],> 100 µM
same,TGI,[19],> 100 µM
same,TGI,[20],> 100 µM
same,TGI,[21],45.3 µM
same,TGI,[22],49.3 µM
same,TGI,[23],85.9 µM
same,TGI,[24],86.3 µM
same,TGI,[25],46.7 µM
same,TGI,[26],> 100 µM
same,TGI,[27],> 100 µM
same,TGI,[28],31.8 µM
same,TGI,[29],36.2 µM
same,TGI,[30],92.5 µM
same,TGI,[31],63.7 µM
same,TGI,[32],> 100 µM
same,TGI,[33],85.6 µM
same,TGI,[34],> 100 µM
same,TGI,[35],93.2 µM
same,TGI,[36],88.3 µM
same,TGI,[37],79.4 µM
same,TGI,[38],> 100 µM
same,TGI,[39],30.4 µM
same,TGI,[40],71.5 µM
same,TGI,[41],> 100 µM
same,TGI,[42],91.2 µM
same,TGI,[43],70.5 µM
same,TGI,[44],89.3 µM
same,TGI,[45],35.6 µM
same,TGI,[46],30.1 µM
same,TGI,[47],62.9 µM
same,TGI,[48],35.1 µM
same,TGI,[49],61.8 µM
same,TGI,[50],94.9 µM
same,TGI,[51],> 100 µM
same,TGI,[52],49.5 µM
same,TGI,[53],37.4 µM
same,TGI,[54],42.2 µM
O=C1c2ccccc2-c2ccccc2C(=O)C1(Br)Br,TGI,[1],33.7 µM
same,TGI,[2],29.6 µM
same,TGI,[3],20.3 µM
same,TGI,[4],34.6 µM
same,TGI,[5],4.92 µM
same,TGI,[6],27.2 µM
same,TGI,[55],9.59 µM
same,TGI,[7],24.6 µM
same,TGI,[8],29.8 µM
same,TGI,[9],32.7 µM
same,TGI,[11],22.3 µM
same,TGI,[12],26.7 µM
same,TGI,[13],32 µM
same,TGI,[14],6.47 µM
same,TGI,[15],27.5 µM
same,TGI,[16],31.8 µM
same,TGI,[17],26.2 µM
same,TGI,[56],30.2 µM
same,TGI,[18],23.4 µM
same,TGI,[19],32.2 µM
same,TGI,[20],21.1 µM
same,TGI,[57],23.7 µM
same,TGI,[21],22.8 µM
same,TGI,[22],19.6 µM
same,TGI,[23],27.7 µM
same,TGI,[24],26.4 µM
same,TGI,[25],23.6 µM
same,TGI,[26],25.7 µM
same,TGI,[27],24.6 µM
same,TGI,[28],29.4 µM
same,TGI,[29],21.9 µM
same,TGI,[30],31.5 µM
same,TGI,[31],10.9 µM
same,TGI,[32],25 µM
same,TGI,[33],17.6 µM
same,TGI,[34],32.2 µM
same,TGI,[35],20.7 µM
same,TGI,[58],28.5 µM
same,TGI,[36],16.7 µM
same,TGI,[37],27.4 µM
same,TGI,[38],28.5 µM
same,TGI,[39],22.2 µM
same,TGI,[40],28.3 µM
same,TGI,[41],35 µM
same,TGI,[42],24.2 µM
same,TGI,[43],20.8 µM
same,TGI,[44],31.6 µM
same,TGI,[45],31.1 µM
same,TGI,[46],7.53 µM
same,TGI,[47],13.6 µM
same,TGI,[48],4.95 µM
same,TGI,[49],31.7 µM
same,TGI,[50],23.9 µM
same,TGI,[51],13 µM
same,TGI,[52],9.26 µM
same,TGI,[53],4.65 µM
same,TGI,[54],17.9 µM
CC1(C)OC(=O)C(c2cccs2)C(=O)O1,TGI,[1],> 100 µM
same,TGI,[2],> 100 µM
same,TGI,[3],> 100 µM
same,TGI,[4],> 100 µM
same,TGI,[5],> 100 µM
same,TGI,[55],> 100 µM
same,TGI,[7],> 100 µM
same,TGI,[8],> 100 µM
same,TGI,[9],> 100 µM
same,TGI,[10],> 100 µM
same,TGI,[12],> 100 µM
same,TGI,[13],> 100 µM
same,TGI,[15],> 100 µM
same,TGI,[16],> 100 µM
same,TGI,[17],> 100 µM
same,TGI,[18],> 100 µM
same,TGI,[19],> 100 µM
same,TGI,[20],> 100 µM
same,TGI,[57],> 100 µM
same,TGI,[21],> 100 µM
same,TGI,[22],> 100 µM
same,TGI,[23],> 100 µM
same,TGI,[24],> 100 µM
same,TGI,[25],> 100 µM
same,TGI,[26],> 100 µM
same,TGI,[27],> 100 µM
same,TGI,[28],> 100 µM
same,TGI,[29],> 100 µM
same,TGI,[30],> 100 µM
same,TGI,[31],> 100 µM
same,TGI,[32],> 100 µM
same,TGI,[33],> 100 µM
same,TGI,[34],> 100 µM
same,TGI,[35],> 100 µM
same,TGI,[58],> 100 µM
same,TGI,[36],> 100 µM
same,TGI,[37],> 100 µM
same,TGI,[38],> 100 µM
same,TGI,[39],> 100 µM
same,TGI,[40],> 100 µM
same,TGI,[41],> 100 µM
same,TGI,[42],> 100 µM
same,TGI,[43],> 100 µM
same,TGI,[44],> 100 µM
same,TGI,[45],> 100 µM
same,TGI,[46],> 100 µM
same,TGI,[47],> 100 µM
same,TGI,[48],> 100 µM
same,TGI,[49],> 100 µM
same,TGI,[50],> 100 µM
same,TGI,[51],> 100 µM
same,TGI,[52],> 100 µM
same,TGI,[53],> 100 µM
same,TGI,[54],> 100 µM
